Counter-ions that a name gives are not always drawn.
Key:
[1] = Compatibility study of melogliptin mesylate with various excipients: related substances (RS) by HPLC; format: physicochemical; conditions: sealed glass vial
Source text: Melogliptin Mesylate was Subjected for Compatibility Studies in Solid State Condition with Dry Mixing Technique Using the Following Protocol:
Melogliptin mesylate and various excipients in predetermined w/w ratios were mixed geometrically. Melogliptin mesylate to excipients ratios were selected based on the excipients concentration expected to be used during the development of the formulation. The placebo of each excipient used was kept on respective stability conditions as control.
The samples were stored in glass vials. The vials were closed with rubber stoppers and sealed with aluminum seals, and kept in upright position.
The vials were stored at three storage conditions: 25° C., 30° C. and 40° C.
The samples were analyzed initially, then followed by the end of 1 week, 2 weeks and 4 weeks time periods for related substances (RS), as monitored by HPLC and differential scanning calorimetry (DSC), to study the interaction between melogliptin and various excipients.
The compatibility data in terms of RS generated initially and upon 4 weeks (“4 W”) storage at about 40° C. of various samples are tabulated below.
Brief Analytical Method for Determination of RS in Melogliptin Mesylate:
A reversed-phase gradient HPLC method was developed. The analysis was performed using C18 HPLC column (Phenomenex Gemini 110 A, C-18, 50×4.6 mm, 3 μm). The mobile phase was a gradient mixture of a solution of 1.26 g of ammonium formate in 1000 ml of purified water adjusted to pH 8.4 using 25% v/v ammonia solution (Mobile Phase A) and a solution of 1.26 g of ammonium formate in a mixture of purified water (800 ml) and acetonitrile (200 ml) adjusted to pH 8.4 using 25% v/v ammonia solution (Mobile Phase B). The gradient program is provided below. The flow rate was 1.0 ml/min; injection volume 20 μl; and column temperature was 25° C. Suitable dilutions of the placebo, standard and test samples were injected in the column. Areas for impurity A (eluted at the relative retention time of 0.51) and total RS in the chromatogram were integrated, and accordingly the contents of impurity A and total RS were determined.

[2] = 4 weeks storage at about 40° C.
[3] = dry mix of melogliptin mesylate with excipient, initial

Row | Structure (SMILES) | melting point [°C] | RS by HPLC, Impurity A, 4 W [1, 2] [% w/w] | RS by HPLC, Total RS, 4 W [1, 2] [% w/w] | RS by HPLC, Impurity A, Initial [1, 3] [% w/w] | RS by HPLC, Total RS, Initial [1, 3] [% w/w]
1 | N=C1[C@@H]2C[C@H](F)CN2C(=O)CN1[C@@H]1CC[C@H](Cn2cncn2)C1 (stereo in doubt) (as salt: mesylate) [impurity A, 7-fluoro-1-imino-2-[3-(1H-1,2,4-triazol-1-ylmethyl)cyclopentyl] hexahydropyrrolo[1,2-a]pyrazin-4(1H)-one mesylate] | 150 to 160 |  |  |  | 
2 | N=C1[C@@H]2C[C@H](F)CN2C(=O)CN1[C@@H]1CC[C@H](Cn2cncn2)C1 (stereo in doubt) [Example 11, 7-fluoro-1-imino-2-[3-(1H-1,2,4-triazol-1-ylmethyl)cyclopentyl] hexahydropyrrolo[1,2-a]pyrazin-4(1H)-one] | 158 to 162 |  |  |  | 
3 | N#C[C@@H]1C[C@H](F)CN1C(=O)CN[C@@H]1CC[C@H](Cn2cncn2)C1 [Melogliptin mesylate, (2S,4S)-1-{2-[(3S,1R)-3-(1H-1,2,4-triazol-1-ylmethyl)cyclopentylamino]acetyl}-4-fluoropyrrolidine-2-carbonitrile] |  | 0.05 | 0.13 | 0.02 | 0.12

From patent US8404727B2, “Pharmaceutical composition that includes a dipeptidyl peptidase-IV inhibitor” (Glenmark Pharmaceuticals S.A., priority 2009, dated 2013)
